Results taken from article PMC7027018 (BMC Chemistry, 2020).

Experiments:
[1] = Hydrogen peroxide scavenging (H2O2) assay; conditions: absorption at 230 nm, 10 min incubation, phosphate buffer pH 7.4; mean ± SEM, n = 3
Method: H2O2 is quickly decomposed into oxygen and water and this could generate hydroxyl radicals (OH) that may commence DNA damage in the body and lipid peroxidation. The hydrogen peroxide inhibitory activity of newly synthesized compounds was assessed by the technique illustrated by Nakano and coworkers with some modifications. In phosphate buffer (40 mM pH 7.4) the solution of hydrogen peroxide (40 mM) was prepared and different concentrations of titled compounds (05–80 μg ml^−1) were added to H2O2 solution (2 ml). The concentration of hydrogen peroxide is determined by absorption at 230 nm using a spectrophotometer after 10 min of incubation. Blank reading was noted of phosphate buffer without H2O2. The percentage of hydrogen peroxide inhibition was anticipated by the formula [(Ab − At)/[…]] × 100, where Ab is the absorbance of the control and At is the absorbance of compounds/standard taken as L-ascorbic acid (05–80 μg ml^−1). UV/Vis Epoch ELISA reader was used to measure as a decrease in absorbance in the 96 wells (Table 5).

[2] = biological target: T1, hMAO-B (Homo sapiens, UniProt P27338); assay: hMAO-B inhibitory activity, Amplex Red continuous fluorometric assay; assay type: biochemical; conditions: for Selectivity index: IC50 (MAO-A)/IC50 (MAO-B); for IC50: recombinant hMAO-B, p-tyramine substrate, Amplex Red, mean SEM
T1 construct: purchased Sigma-Aldrich; host or cells: insect cells (BTI-TN-5B14), recombinant baculovirus
T1 sequence (P27338 1-520): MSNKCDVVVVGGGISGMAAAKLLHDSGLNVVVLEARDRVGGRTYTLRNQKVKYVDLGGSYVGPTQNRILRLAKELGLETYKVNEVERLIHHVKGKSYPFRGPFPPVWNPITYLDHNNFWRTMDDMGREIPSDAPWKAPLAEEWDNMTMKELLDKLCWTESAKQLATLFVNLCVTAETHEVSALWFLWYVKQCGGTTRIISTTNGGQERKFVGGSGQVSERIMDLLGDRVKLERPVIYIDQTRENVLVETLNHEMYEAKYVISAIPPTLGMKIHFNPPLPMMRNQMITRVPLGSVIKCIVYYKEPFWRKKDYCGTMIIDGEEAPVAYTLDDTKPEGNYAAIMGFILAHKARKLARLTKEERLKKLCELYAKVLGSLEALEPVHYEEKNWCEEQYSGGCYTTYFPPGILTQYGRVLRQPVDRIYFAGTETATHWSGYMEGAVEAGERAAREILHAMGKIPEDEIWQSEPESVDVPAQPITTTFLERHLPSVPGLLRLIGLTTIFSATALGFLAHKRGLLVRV
Method: (§1) The synthesized derivatives were screened for the hMAO-A and hMAO-B inhibitory activities by using an extremely sensitive continuous fluorometric assay containing Amplex Red (10-acetyl-3, 7-dihydroxyphenoxazine) reagent. The enzymatic H2O2 was measured with and without extracts or standards.
(§2) Unless otherwise noted, the analytical grade chemicals required for synthesis and antioxidant activity procured from Sigma Aldrich, Merck, Hi-media Laboratories. The analytical assessment of the synthesized derivatives for hMAO inhibition was measured by their effects on the generation of hydrogen peroxide (H2O2) by p-tyramine (a general substrate for both MAO isoforms), utilizing the Amplex Red MAO assay kit (Sigma USA) and microsomal MAO enzymes extracted by insect cells (BTI-TN-5B14) expressed on recombinant baculovirus containing cDNA probes for MAO isoforms (Sigma-Aldrich USA) were used as source for the two microsomal MAO isoforms. The progress of the reaction was cheeked through thin layer chromatography TLC executed on 0.25 mm pre-coated plates with silica gel procured from Merck, and the spots were envisaged in iodine chamber and UV cabinet, in mobile media TLC-hexane:toluene:ethyl acetate (1:1:1). Melting points were recorded on Sonar melting point apparatus in open capillary tubes. The nuclear magnetic resonance (NMR) spectra 1H NMR and ^13C NMR spectra were determined in DMSO and deuterated CDCl3 respectively on a spectrometer (Model: Bruker Avance II 400 NMR). Coupling constants J are in hertz (Hz) (Additional file 1). Spectral data for infrared (IR) was confirmed on Perkin Elmer FTIR spectrophotometer by using KBr pellets technique.
(§3) Human MAO-A and -B recombinant enzymes (Sigma-Aldrich) 5 mg ml^−1 were pre-aliquoted and placed at − 70 °C. The interactions of the titled compounds with hMAO isoforms were evaluated through a fluorimetric method based on the H2O2 formation rendered by MAO isoforms was identified by utilizing the non-fluorescent, extremely susceptible and stable probe Amplex®-Red reagent (10-acetyl-3,7-dihydroxyphenoxazine), which reacts with H2O2 in the existence of horseradish peroxidase to generate resorufin which is a fluorescent component. […] By the incubation time, the reaction was initiated via the addition of 200 μM Amplex Red reagent, 1 mM p-tyramine (general substrate for both MAO isoforms) and 1 U ml^−1 horseradish peroxidase (HRP). […] The calculation of specific fluorescence emission (used to obtain the final results) was carried out by subtraction of background action that was identified by the cuvettes comprising all reagents except the MAO isoforms, which were changed by a sodium phosphate buffer solution. The preparation of stock solutions and all reagents was done newly each day in deionized water and kept at − 20 °C. Data were processed in Microsoft Excel, to calculate IC50 values.
(§4) The enzymatic kinetic factors maximum reaction rate (Vmax) and Michaelis–Menten constant (Km) were computed by GraphPad Prism Software 6.02 (San Diego, CA, USA). The IC50 values were determined by nonlinear regression best fit model of normalized response with variable slope. Lineweaver–Burk plot was obtained from Michaelis–Menten data. The Michaelis–Menten constant (Km) is the concentration of […]. Relative selectivity (RS) folds were defined by the ratio of hMAO-A IC50 to hMAO-B IC50. The inhibition mechanism was identified by the double reciprocal plot (Lineweaver–Burk curves) by plotting the inverse of the substrate concentration (1/S) as a function against the inverse of initial velocity (1/V).

[3] = DPPH radicals scavenging activity; conditions: absorbance at 517 nm, 30 min at 37 °C; mean ± SEM, n = 3
From the text: Besides their inhibitory action on hMAO the antioxidant potential of synthesized compounds was investigated using 1,1-Diphenyl-2-picrylhydrazyl (DPPH) assay. DPPH was utilized as a stable free radical because free radicals simulate reactive nitrogen and oxygen species distressing neurological structure.
The DPPH method is one of the most proficient techniques to assess the radical-scavenging action by a chain-breaking mechanism. […] DPPH is stable free radical on room temperature, however on acceptance of a hydrogen/electron radical it turns into a stable diamagnetic molecule. The scavenging activity of DPPH radical is assessed by the reduction in its optical density at 5l7 nm, rendered by antioxidants. This phenomenal feature of DPPH is due to the reaction among antioxidant compounds and radicals, leads to the scavenging of the free radical via donated hydrogen. It manifested visually as the color bleaches from purple to yellow. Therefore, DPPH is generally utilized as a substrate to estimate the ant oxidative potential. Different concentrations of around […] (25, 50, 75, and 100) µg ml^−1 of the titled derivatives were suspended in methanol and mixed with 5 ml of a 0.004% methanol solution of DPPH. Subsequently the all dilutions were subjected to incubation for 30 min at 37 °C temperature; finally, at 517 nm the absorbance was measured against a blank. Ascorbic acid was utilized as a reference while and all the experiments were performed in triplicate. […] DPPH free radical scavenging of compounds was calculated as scavenging activity for DPPH (%) = [(Ac − At)/Ac] × 100 Where Ac is the absorbance of the control reaction At is the absorbance of the test compound. The absorbance was measured with UV/Vis Epoch ELISA reader at 517 nm, and antioxidant activity was measured as a decrease in absorbance of DPPH·.

[4] = biological target: T2, hMAO-A (Homo sapiens, UniProt P21397); assay: hMAO-A inhibitory activity, Amplex Red continuous fluorometric assay; assay type: biochemical; conditions: recombinant hMAO-A, p-tyramine substrate, mean SEM
T2 construct: purchased Sigma-Aldrich; host or cells: insect cells (BTI-TN-5B14), recombinant baculovirus
T2 sequence (P21397 1-527): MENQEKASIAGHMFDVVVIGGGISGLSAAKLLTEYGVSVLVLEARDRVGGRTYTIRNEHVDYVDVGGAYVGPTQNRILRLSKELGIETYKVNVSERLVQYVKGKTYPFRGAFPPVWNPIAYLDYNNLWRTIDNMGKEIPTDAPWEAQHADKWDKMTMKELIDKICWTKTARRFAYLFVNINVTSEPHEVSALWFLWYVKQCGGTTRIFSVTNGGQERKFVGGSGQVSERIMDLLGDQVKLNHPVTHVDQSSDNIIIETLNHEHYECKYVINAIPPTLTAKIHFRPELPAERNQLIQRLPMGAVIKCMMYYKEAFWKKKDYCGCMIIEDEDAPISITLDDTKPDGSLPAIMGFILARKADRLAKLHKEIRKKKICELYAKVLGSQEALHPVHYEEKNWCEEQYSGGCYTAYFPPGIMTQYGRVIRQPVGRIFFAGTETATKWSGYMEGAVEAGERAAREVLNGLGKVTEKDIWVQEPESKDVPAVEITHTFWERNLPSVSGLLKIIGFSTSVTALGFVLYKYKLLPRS
Method: as §1, §2, §3, §4

[5] = biological target: T2, hMAO-A; assay: Kinetic study (Lineweaver-Burk) of hMAO-A inhibition; assay type: biochemical; conditions: Lineweaver-Burk plots, p-tyramine substrate
From the text: The kinetic study by the Lineweaver–Burk plots, carried out to explicates the type of inhibition by compounds 7, 15 shown their significant inhibitory potential towards hMAO-A and hMAO-B, respectively. Reaction mixtures composing of five diverse concentrations of p-tyramine was used as a common substrate in the presence or absence of compounds.
as §4

| IC50 [1] | Selectivity index [2] | IC50 [2] | IC50 [3] | IC50 [4] | type of hMAO-A inhibition [5] | SMILES |
| --- | --- | --- | --- | --- | --- | --- |
| 8.279 ± 0.017 µM | 4.241 | 14.19 ± 0.007 µM | 5.553 ± 0.007 µM | 60.19 ± 0.087 µM |  | O=C(/C=C/C=C/c1ccc2c(c1)OCO2)Nc1ccc(Br)cc1 [Compound 5] |
| 9.495 ± 0.045 µM | 0.294 | 52.2 ± 0.006 µM | 8.815 ± 0.019 µM | 15.38 ± 0.071 µM | competitive | O=C(/C=C/C=C/c1ccc2c(c1)OCO2)Nc1cccc2ccccc12 [Compound 7] |
| 13.98 ± 0.01 µM |  | 71.01 ± 0.005 µM | 12.35 ± 0.021 µM | 22.19 ± 0.07 µM |  | O=C(/C=C/C=C/c1ccc2c(c1)OCO2)N1CCOCC1 [Compound 9] |
| 17.57 ± 0.091 µM | 1.637 | 20.59 ± 0.006 µM | 14.15 ± 0.011 µM | 33.72 ± 0.071 µM |  | CC1CCC(C(C)C)C(OC(=O)/C=C/C=C/c2ccc3c(c2)OCO3)C1 (stereo not drawn) [Compound 11] |
| 11.35 ± 0.004 µM | 0.371 | 65.99 ± 0.002 µM | 10.7 ± 0.035 µM | 24.53 ± 0.002 µM |  | O=C(/C=C/C=C/c1ccc2c(c1)OCO2)Oc1ccc2ccc(=O)oc2c1 [Compound 13] |
| 23.76 ± 0.021 µM | 1.512 | 21.37 ± 0.007 µM | 17.15 ± 0.026 µM | 32.33 ± 0.043 µM |  | Cc1ccc(C(C)C)cc1OC(=O)/C=C/C=C/c1ccc2c(c1)OCO2 [Compound 17a] |
| 10.09 ± 0.013 µM | 1.675 | 17.9 ± 0.038 µM | 8.281 ± 0.001 µM | 30 ± 0.005 µM |  | COc1cc(C=O)ccc1OC(=O)/C=C/C=C/c1ccc2c(c1)OCO2 [Compound 17b] |
| 15.71 ± 0.014 µM | 0.609 | 26.44 ± 0.063 µM | 16.52 ± 0.012 µM | 16.11 ± 0.091 µM |  | C=CCc1ccc(OC(=O)/C=C/C=C/c2ccc3c(c2)OCO3)c(OC)c1 [Compound 17c] |
| 11.33 ± 0.016 µM | 1.081 | 17.57 ± 0.037 µM | 9.814 ± 0.053 µM | 19.01 ± 0.031 µM |  | O=C(/C=C/C=C/c1ccc2c(c1)OCO2)N1CCCCC1 [Piperine, reference compound] |
